Here are results for three molecules from US20200157144A1, “ANTIMICROBIAL PEPTIDOMIMETICS” (priority 2017, published 2020).

Molecules are shown by their SMILES. Converted amounts (≈) assume the structure as drawn. “And” between values parts separate entries of the source, which are not always exact repeats. Equal entries are not always repeated. Where two headings read alike, the source gives them in different places.

Common to all, as to test: microbe, parasite or virus in culture
In assay [1] the test system is Mupirocin-resistant MRSA ATCC-BAA-1556. In kind it is cell-based, Staphylococcus aureus. As to conditions: Staphylococcus aureus. How it is done: (§1) The MICs of test compounds were determined using the microdilution method from the Clinical and Laboratory Standards Institute (CLSI) guidelines (Clinical and Laboratory Standards Institute. Methods for dilution antimicrobial susceptibility tests for bacteria that grow aerobically; approved standard—ninth edition. Document M07-A9. Vol. 32 No. 2. Wayne, Pa.: CLSI; 2012). Briefly, bacteria were grown fresh from frozen stock in Mueller Hinton 2 (MH2) agar at 37° C. After an overnight incubation, 5 bacteria colonies were selected to grow in cation-adjusted MH2 broth in a shaking incubator (140 RPM) at 37° C. Cells were grown to an optical density (OD600) of 0.15-0.16 determined using a spectrophotometer (Molecular Devices Spectra Max Plus), which corresponds to ˜1×10^8 CFU/mL. Test compounds were constituted into 4 mM DMSO stock solutions and then subjected to 2-fold serial dilution in a 96-well plate with concentrations ranging from 100 to 0.195 μM in duplicates. […] of microbial culture containing ˜1×10^6 CFU/mL of microbes in the respective broths was introduced into each well containing 50 μL of compound solution. After an overnight incubation at 35° C., (220 RPM), OD600 measurements were conducted using the microplate spectrophotometer. The MIC was defined as the lowest antibiotic or compound concentration (μM) required to inhibit bacteria growth.
(§2) The 11th well was used as the growth control well (medium with bacterial inoculums, no antibacterial) while the 12th well was the sterility control well (medium only).

Assay [2] deals with Mupirocin-resistant MRSA ATCC-BAA-1708. It is filed as cell-based, Staphylococcus aureus. As to conditions: Staphylococcus aureus. How it is done: as §1, §2
Assay [3] deals with Mupirocin-resistant MRSA ATCC-BAA-1750 (USA200). It is filed as cell-based, Staphylococcus aureus. As to conditions: Staphylococcus aureus. How it is done:
as §1, §2

Assay [4] relates to Mupirocin-susceptible MRSA ATCC-33592 (ST239). In kind it is cell-based, Staphylococcus aureus. The note with it: Staphylococcus aureus. As for the experimental part: as §1, §2
Assay [5] concerns Mupirocin-susceptible MRSA ATCC-700699 (VISA). It is filed as cell-based, Staphylococcus aureus. The note with it: Staphylococcus aureus. How it is done:
as §1, §2

Assay [6] relates to Mupirocin-susceptible MRSA ATCC-BAA-1681 (USA100). In kind it is cell-based, Staphylococcus aureus. As to conditions: Staphylococcus aureus. As for the experimental part: as §1, §2
For assay [7], the system named is Mupirocin-susceptible MRSA ATCC-BAA-1707 (USA400). It is filed as cell-based, Staphylococcus aureus. As to conditions: Staphylococcus aureus. As for the experimental part:
as §1, §2

For assay [8], the system named is Mupirocin-susceptible MRSA ATCC-BAA-1754 (ST45). It is filed as cell-based, Staphylococcus aureus. The note with it: Staphylococcus aureus. How it is done: as §1, §2
Assay [9] relates to Mupirocin-susceptible MRSA ATCC-BAA-1756 (USA300). In kind it is cell-based, Staphylococcus aureus. As to conditions: Staphylococcus aureus. As for the experimental part: as §1, §2
The subject of assay [10] is Mupirocin-susceptible MRSA ATCC-BAA-2762 (EMRSA15, ST22). It is filed as cell-based, Staphylococcus aureus. The note with it: Staphylococcus aureus. How it is done:
as §1, §2

Assay [11] concerns S. aureus ECL 2963646. It is filed as cell-based. The note with it: Staphylococcus aureus, ECL2963646; S. aureus ECL 2963646; CAMHB II; read-out: MIC. How it is done: (§3) The antibacterial potency of Compound 34 was measured using the in vitro broth microdilution assay under assay conditions described by the Clinical and Laboratory Standards Institute. […] The test substance was dissolved in 100% DMSO (unless stated below), suspended completely by sonication or vortexing, diluted by 2-fold serial titrations in the same vehicle, for a total of 11 test concentrations. A 4 μL aliquot of each dilution was added to 196 μL of broth medium seeded with the organism suspension in wells of a 96 well plate (bacterial count: 2-8×10^5 colony forming units/mL final). The final volume was 200 μL in each well and the final DMSO concentration was 2%. The incubation time is 1 day at 36° C. All strains tested underwent aerobic respiration. Following incubation, the test plates were visually examined and wells were scored for growth or complete growth inhibition to define the minimum inhibitory concentration. Each test substance was evaluated in duplicate and the results below are the duplicate test values. Vehicle-control and an active reference agent were used as blank and positive controls, respectively.

The test system of assay [12] is S. aureus NARSA VRS11b. In kind it is cell-based. As to conditions: Staphylococcus aureus; S. aureus NARSA VRS11b; CAMHB II; read-out: MIC. How it is done:
as §3

Assay [13] concerns S. aureus NARSA VRS1. It is filed as cell-based. The note with it: Staphylococcus aureus; S. aureus NARSA VRS1; CAMHB II; read-out: MIC. How it is done: as §3
Assay [14] concerns S. aureus NARSA VRS2. In kind it is cell-based. The note with it: Staphylococcus aureus; S. aureus NARSA VRS2; CAMHB II; read-out: MIC. As for the experimental part:
as §3

For assay [15], the system named is S. aureus NARSA VRS3a. It is filed as cell-based. The note with it: Staphylococcus aureus; S. aureus NARSA VRS3a; CAMHB II; read-out: MIC. How it is done:
as §3

Assay [16] relates to S. aureus (ATCC BAA-1556). The note with it: Staphylococcus aureus, ATCCBAA1556, 24 h, read-out: Mean MIC. How it is done: S. aureus (BAA-1556) was from ATCC. Mupirocin (Cat # M2955) was purchased from TCI chemicals (India) Pvt. […] Ltd, India, Cation adjusted Mueller Hinton broth (CAMHB) and Mueller Hinton Agar (MHA) (Cat # M1657) were from HiMedia Laboratories Pvt. Ltd, India.
The MIC assay was done based on CLSI guidelines in a microtitre plate format (1, 2). Preparation and dilution of Test Item (TI) stock solutions: A 1280 μg/ml stock of Compound 34 was prepared by dissolving 1.28 mg in 1.0 ml of sterile water to obtain the Master Stock (MS) solution. The MS solution was diluted 2-fold to obtain a series of Working Stock (WS) solutions (Table 7). The final concentration of solvent in the assay was 2.5% and the assay volume was […].
Preparing the inoculum: One day before initiation of experiment, an isolated colony of S. aureus (ATCC BAA-1556) was inoculated into sterile CAMHB and incubated at 37° C. to exponential phase. After incubation, the turbidity was adjusted to that of a 0.5 McFarland Standard (approximately equivalent to 1.0×10^8 CFU/ml) and diluted to ˜1.0×10^6 CFU/ml.
MIC Assay: The MIC assay was performed in a 96 well microtitre plate in a total assay volume of 100 μl (Table 7). Each well containing different concentrations of test compound (concentration range between 0.015625 and 16.0 μg/ml) was inoculated with 50 μl of bacterial suspension (prepared from the inoculum grown overnight and adjusted approximately to 5.0×10^5 CFU/ml) along with culture control (CC, culture in broth), broth control (BC, broth only), and vehicle control (VC, 2.5% solvent in broth plus culture). The plate was incubated at 37° C. for 24 hr and turbidity was measured spectrophotometrically (Absorbance microplate reader, BioTek® India, ELx800™) at 600 nm and visually. The experiment was done in duplicates. The inoculum was also plated for enumeration of bacteria. The MIC was defined as the lowest concentration of test compound that prevented bacterial growth (lack of turbidity by OD at 600 nm and visual inspection relative to no growth control).

In assay [17] the test system is Staphylococcus aureus ATCC 19636. In kind it is cell-based. As to conditions: Staphylococcus aureus, ATCC19636. As for the experimental part:
(§4) The antibacterial potency of Compound 34 was measured using the in vitro broth microdilution assay under assay conditions described by the Clinical and Laboratory Standards Institute. […] The test substance was dissolved in 100% DMSO (unless stated below), suspended completely by sonication or vortexing, diluted by 2-fold serial titrations in the same vehicle, for a total of 10 test concentrations (final concentrations: 100, 50, 25, 12.5, 6.25, 3.125, 1.56, 0.78, 0.39, 0.2 μM). A 4 μL aliquot of each dilution was added to 196 μL of broth medium seeded with the organism suspension in wells of a 96 well plate (bacterial count: 2-8×10^5 colony forming units/mL final). The final volume was 200 μL in each well and the final DMSO concentration was 2 percent. The incubation time is either 1 or 2 days at 36° C. All strains tested underwent aerobic respiration, except for ATCC BAA-1805 and ATCC 29399. Following incubation, the test plates were visually examined and wells were scored for growth or complete growth inhibition to define the minimum inhibitory concentration. Each test substance was evaluated in duplicate and the results below are the duplicate test values.

Assay [18] deals with Staphylococcus aureus ATCC BAA-1717. It is filed as cell-based. As to conditions: Staphylococcus aureus, ATCCBAA1717. How it is done: as §4
Assay [19] concerns Staphylococcus epidermidis ATCC 12228. It is filed as cell-based. The note with it: Staphylococcus epidermidis, ATCC12228. As for the experimental part: as §4
Assay [20] concerns Propionibacterium acnes ATCC 29399. It is filed as cell-based. As to conditions: Cutibacterium acnes, ATCC29399. How it is done:
as §4, with “values. Vehicle-control and an active reference agent were used as blank and positive controls, respectively.” for “values.”

Setting [21] is: Mupirocin-susceptible MRSA ATCC-700699 (VISA), read-out: MIC.

On to `CC(=O)NC[C@H]1CN(c2ccc(N3CCOCC3)c(F)c2)C(=O)O1` [Linezolid], for which the MIC was 6.25 µM (≈ 2.11 µg/mL) in assay [1]; 6.25 µM (≈ 2.11 µg/mL) in assay [2]; 6.25 µM (≈ 2.11 µg/mL) in [3]; 6.25 µM (≈ 2.11 µg/mL) in assay [4]; 3.12 µM (≈ 1.05 µg/mL) in assay [5] (setting [21]); 6.25 µM (≈ 2.11 µg/mL) in assay [6]. Further, the MIC in assay [7] was 6.25 µM (≈ 2.11 µg/mL); in assay [8] it was 6.25 µM (≈ 2.11 µg/mL); in assay [9] it was 6.25 µM (≈ 2.11 µg/mL); in [10], 6.25 µM (≈ 2.11 µg/mL); in [11], 2 µg/mL and 5.93 µM; in assay [12], 2 µg/mL and 5.93 µM. For the same molecule, the MIC was 2 µg/mL and 5.93 µM in assay [13]; 2 µg/mL and 5.93 µM in [14]; 4 µg/mL and 11.9 µM in [15]; 1 µg/mL and 2.96 µM in assay [16].

With `C/C(=C\C(=O)OCCCCCCCCC(=O)O)C[C@@H]1OC[C@H](C[C@@H]2O[C@H]2[C@@H](C)[C@H](C)O)[C@@H](O)[C@H]1O` [Mupirocin], the MIC was more than 100 µM in assay [1] (Mupirocin-resistant MRSA ATCC-BAA-1556, cation-adjusted MH2 broth, overnight 35° C., OD600, read-out: MIC); more than 100 µM in assay [2] (Mupirocin-resistant MRSA ATCC-BAA-1708, read-out: MIC); 25 µM (≈ 12.5 µg/mL) in assay [3] (Mupirocin-resistant MRSA ATCC-BAA-1750 (USA200), read-out: MIC); not above 0.2 µM in assay [4] (Mupirocin-susceptible MRSA ATCC-33592 (ST239), read-out: MIC); not above 0.2 µM in assay [5] (setting [21]); not above 0.2 µM in assay [6] (Mupirocin-susceptible MRSA ATCC-BAA-1681 (USA100), read-out: MIC). The MIC was not above 0.2 µM in [7] (Mupirocin-susceptible MRSA ATCC-BAA-1707 (USA400), read-out: MIC); not above 0.2 µM in [8] (Mupirocin-susceptible MRSA ATCC-BAA-1754 (ST45), read-out: MIC); not above 0.2 µM in [9] (Mupirocin-susceptible MRSA ATCC-BAA-1756 (USA300), read-out: MIC); not above 0.2 µM in assay [10] (Mupirocin-susceptible MRSA ATCC-BAA-2762 (EMRSA15, ST22), read-out: MIC); > 16 µg/mL and > 32 µM in assay [16].

For the molecule `CN[C@H](CC(C)C)C(=O)N[C@H]1C(=O)N[C@@H](CC(N)=O)C(=O)N[C@H]2C(=O)N[C@H]3C(=O)N[C@H](C(=O)N[C@H](C(=O)O)c4cc(O)cc(O)c4-c4cc3ccc4O)[C@H](O)c3ccc(c(Cl)c3)Oc3cc2cc(c3O[C@@H]2O[C@H](CO)[C@@H](O)[C@H](O)[C@H]2O[C@H]2C[C@](C)(N)[C@H](O)[C@H](C)O2)Oc2ccc(cc2Cl)[C@H]1O` [Vancomycin], the MIC turned out to be 0.78 µM (≈ 1.13 µg/mL) in assay [1]; 0.78 µM (≈ 1.13 µg/mL) in assay [2]; 0.78 µM (≈ 1.13 µg/mL) in assay [3]; 0.78 µM (≈ 1.13 µg/mL) in assay [4]; 6.25 µM (≈ 9.06 µg/mL) in assay [5]; 1.56 µM (≈ 2.26 µg/mL) in assay [6]. Moreover, the MIC in assay [7] amounted to 0.78 µM (≈ 1.13 µg/mL); in [8], 0.78 µM (≈ 1.13 µg/mL); in [9] it was 0.78 µM (≈ 1.13 µg/mL); in assay [10], 0.78 µM (≈ 1.13 µg/mL); in assay [17], 1 µg/mL (≈ 0.69 µM); in assay [18], 1 µg/mL (≈ 0.69 µM). Besides, the MIC was 1 µg/mL (≈ 0.69 µM) in [19]; 0.5 µg/mL and 0.35 µM in assay [20].
